Data set [1] in a line: MTT cytotoxicity assay, MRC-5 normal cells. As to conditions: human, MRC-5 fetal lung fibroblast cells (normal cells).
Protocol: (§1) Human ovarian carcinoma A2780 and cisplatin-resistant A2780cisR cells were cultured in RPMI 1640 with 10% FBS and 100 units penicillin/streptomycin. Human breast adenocarcinoma MCF-7, human colorectal carcinoma HCT116, human lung carcinoma A549, and cisplatin-resistant A549cisR cells were cultured in DMEM containing 10% FBS and 100 units penicillin/streptomycin. Human fetal lung fibroblast MRC-5 cells were cultured in MEM with 10% FBS, 1% L-glutamine, 1% non-essential amino acids, and 1% sodium pyruvate. […] All cells were incubated at 37° C. in 5% CO2.
(§2) For each of these assays, cells were seeded in 96-well plates at a certain density. For instance, A2780 cells were seeded in a 96-well plate at the density of 1,500 cells per well and incubated till the confluence reached about 30%. Cells were then treated with medium containing varying concentrations of compounds for 72 h at 37° C. in 5% CO2. […] For MTT assay, after incubation for 72 h, the medium containing compounds was replaced by FBS-free medium with 1 mg/mL MTT for 4 h incubation. DMSO was added to each well when the medium containing MTT was removed after incubation. The absorbance was measured at 570 and 630 nm. Cells incubated with medium containing 1% DMF only were used as controls. The seeded cell density for A549, MCF-7 and HCT116 was 1,500 cells/well, and for A2780cisR, A549cisR, and MRC-5 was 2,500 cells were seeded to each well. The absorbance was tested at 570 and 630 nm.
(§3) Values are the average of the 96-wells for each tested compound, and the reported errors are the corresponding standard deviations.
Data set [2] has as its system Human breast adenocarcinoma MCF-7 cells.
Protocol: Human breast adenocarcinoma MCF-7, human colorectal carcinoma HCT116, human lung carcinoma A549, and cisplatin-resistant A549cisR cells were cultured in DMEM containing 10% FBS and 100 units penicillin/streptomycin. […] All cells were incubated at 37° C. in 5% CO2.
as §2, §3
Data set [3] concerns Human fetal lung fibroblast MRC-5 cells.
Protocol: as §1, §2, §3
The test system of data set [4] is cisplatin-resistant A549cisR cells.
Protocol: as §1, §2, §3
For data set [5], the system named is Human ovarian carcinoma A2780 cells.
Protocol: as §1
(§4) For each of these assays, cells were seeded in 96-well plates at a certain density. For instance, A2780 cells were seeded in a 96-well plate at the density of 1,500 cells per well and incubated till the confluence reached about 30%. Cells were then treated with medium containing varying concentrations of compounds for 72 h at 37° C. in 5% CO2. […] For MTT assay, after incubation for 72 h, the medium containing compounds was replaced by FBS-free medium with 1 mg/mL MTT for 4 h incubation. DMSO was added to each well when the medium containing MTT was removed after incubation. The absorbance was measured at 570 and 630 nm. Cells incubated with medium containing 1% DMF only were used as controls. […] The absorbance was tested at 570 and 630 nm. […]
In data set [6] the test system is cisplatin-resistant A2780cisR cells.
Protocol: as §1, §2, §3
Data set [7] deals with human lung carcinoma A549 cells.
Protocol: as §1, §4
The test system of data set [8] is cisplatin-resistant A2780cisR cells. The data set is described as follows: MTT cytotoxicity assay, A2780cisR cells.
Protocol: as §1, §2, §3
The test system of data set [9] is human colorectal carcinoma HCT116 cells. In words: MTT cytotoxicity assay, HCT116 cells. The format is cell-based. As to conditions: maximum over the cells tested (HCT116). As for the experimental part:
The absorbance was measured at 570 and 630 nm. […].

For data set [10], the system named is cisplatin-resistant A549cisR cells. The data set is described as follows: MTT cytotoxicity assay, A549cisR cells. A general note: Tetrazolium assays rely on reduction of a dye to a coloured formazan, in cell work by metabolically active cells.
Protocol: as §1, §2, §3

The values below come from patent publication US11220522B2, “Cytotoxic platinum complex, its preparation and therapeutic use” (City University of Hong Kong, priority 2016, dated 2022).

In data set [1], `[NH2][Pt]([NH2])([Cl])([Cl])([O]C(=O)COc1ccc(/C=C/C(=O)c2ccc(Cl)c(Cl)c2)cc1)[O]C(=O)COc1ccc(/C=C/C(=O)c2ccc(Cl)c(Cl)c2)cc1` [chalcoplatin] yielded an IC50 at 72 h of 9 ± 0.4 µM.
On to Chalcone, for which the concentration for half-maximal inhibition (IC50) in [2] was more than 50 µM; in [3], 65.1 ± 9 µM; in data set [4] it was more than 40 µM; in [5], more than 35 µM; in data set [6], more than 35 µM; in [7] it was more than 40 µM.
In the case of `[NH2][Pt]([NH2])([OH])([Cl])([Cl])[O]C(=O)COc1ccc(/C=C/C(=O)c2ccc(Cl)c(Cl)c2)cc1` [monochalcoPt(IV)], the “IC50 (cytotoxicity, MTT assay)” value is “nanomolar” in [8] (A2780cisR cells, 72 h drug treatment) and “nanomolar” in data set [10] (A549cisR cells, 72 h drug treatment). Also, in data set [1], half-maximal inhibition (IC50 at 72 h) was put at 0.11 ± 0.03 µM. Further, the “fold increase in cytotoxicity compared with cisplatin” value in data set [9] was not above 422 fold.
For the compound `N.N.[Cl][Pt][Cl]` [cDDP, cis-diamminedichloroplatinum], the “RF (Resistant Factor)” value worked out at 16 in data set [8] (IC50 in A2780CisR/IC50 in A2780 cells) and 4.3 in data set [10] (IC50 in A549cisR/IC50 in A549 cells).

Broadly, the IC50 is the concentration that gives 50% inhibition.
